Data as given in ChEMBL document CHEMBL3414446, “Neoechinulin B and its analogues as potential entry inhibitors of influenza viruses, targeting viral hemagglutinin” (Eur J Med Chem, 2015).
The source made the active and inactive calls. The calls are words filed in the database; no cut-off is given here.

Tests used:
[1] = Cytotoxicity against MDCK cells assessed as cell growth after 40 hrs by CellTiter-Glo assay; format: cell-based, Canis lupus familiaris; details: dog
[2] = Antiviral activity against influenza A virus A/WSN/33 (H1N1) infected in MDCK cells assessed as reduction in cytopathic effect at 100 uM after 48 hrs by plaque assay; format: functional, Influenza A virus (A/WSN/1933(H1N1))
[3] = Antiviral activity against influenza A virus A/WSN/33 (H1N1) infected in MDCK cells assessed as reduction in cytopathic effect after 48 hrs by plaque assay; format: functional, cell-based, Influenza A virus (A/WSN/1933(H1N1))
[4] = molecular target: Hemagglutinin (Influenza A virus) (UniProt B4URE7); assay: Inhibition of influenza A virus A/WSN/33 (H1N1) Hemagglutinin 1 binding to sialic acid receptor assessed as response unit at 0.625 ug/ml by surface plasmon resonance assay; details: Influenza A virus (A/WSN/1933(H1N1))
[5] = molecular target: Hemagglutinin (Influenza A virus) (UniProt B4URE7); assay: Inhibition of influenza A virus A/WSN/33 (H1N1) Hemagglutinin 1 binding to sialic acid receptor assessed as response unit at 1.25 ug/ml by surface plasmon resonance assay; details: Influenza A virus (A/WSN/1933(H1N1))
[6] = molecular target: Hemagglutinin (Influenza A virus) (UniProt B4URE7); assay: Inhibition of influenza A virus A/WSN/33 (H1N1) Hemagglutinin 1 binding to sialic acid receptor assessed as response unit at 2.5 ug/ml by surface plasmon resonance assay; details: Influenza A virus (A/WSN/1933(H1N1))
[7] = test system: Influenza A virus (A/WSN/1933(H1N1)); assay: Inhibition of influenza A virus A/WSN/33 (H1N1) Hemagglutinin 1 binding to sialic acid receptor assessed as response unit at 10 ug/ml by surface plasmon resonance assay
[8] = Binding affinity to influenza A virus A/WSN/33 (H1N1) Hemagglutinin 1 binding to sialic acid receptor by surface plasmon resonance assay; set-up: species or system Influenza A virus (A/WSN/1933(H1N1))
[9] = test system: Influenza A virus (A/WSN/1933(H1N1)); assay: Inhibition of influenza A virus A/WSN/33 (H1N1) Hemagglutinin 1 binding to sialic acid receptor assessed as response unit at 20 ug/ml by surface plasmon resonance assay
[10] = molecular target: Hemagglutinin (Influenza A virus) (UniProt B4URE7); assay: Inhibition of influenza A virus A/WSN/33 (H1N1) Hemagglutinin 1 binding to sialic acid receptor assessed as response unit at 5 ug/ml by surface plasmon resonance assay; details: Influenza A virus (A/WSN/1933(H1N1))
Hemagglutinin = Hemagglutinin (Influenza A virus, UniProt B4URE7); assay: Binding affinity to influenza A virus A/WSN/33 (H1N1) Hemagglutinin by surface Plasmon resonance assay; set-up: species or system Influenza A virus (A/WSN/1933(H1N1))
[11] = test system: Influenza A virus (A/WSN/1933(H1N1)); assay: Inhibition of influenza A virus A/WSN/33 (H1N1)-induced aggregation of chicken erythrocytes after 30 mins by Hemagglutination inhibition assay; format: functional
[12] = test system: Influenza A virus (A/WSN/1933(H1N1)); assay: Inhibition of influenza A virus A/WSN/33 (H1N1) […] binding to sialic acid receptor by surface Plasmon resonance assay
MDCK [13] = assay: Antiviral activity against influenza A virus A/WSN/33 (H1N1) infected in MDCK cells assessed as nucleoprotein level in infected cells at […] progeny virion release step at 100 uM by Time-of-addition experiment; format: functional, cell-based; details: Influenza A virus (A/WSN/1933(H1N1))
MDCK [14] = assay: Antiviral activity against influenza A virus A/WSN/33 (H1N1) infected in MDCK cells assessed as inhibition of plaque formation for 1 hr at 4 degC; format: functional, cell-based; details: Influenza A virus (A/WSN/1933(H1N1))
MDCK [15] = assay: (§1) Antiviral activity against influenza A virus A/WSN/33 (H1N1) infected in MDCK cells assessed as inhibition of plaque formation after 3 days at 37 degC; format: functional, cell-based; details: Influenza A virus (A/WSN/1933(H1N1))
MDCK [16] = assay: Antiviral activity against influenza A virus A/WSN/33 (H1N1) infected in MDCK cells assessed as nucleoprotein level in infected cells at 0 to 2 hrs virus entry step at 100 uM by Time-of-addition experiment; format: functional, cell-based; details: Influenza A virus (A/WSN/1933(H1N1))
MDCK [17] = assay: Antiviral activity against influenza A virus A/WSN/33 (H1N1) infected in MDCK cells assessed as nucleoprotein level in infected cells at 2 to 8 hrs viral genome replication and translation step at 100 uM by Time-of-addition experiment; format: functional, cell-based; details: Influenza A virus (A/WSN/1933(H1N1))
[18] = molecular target: Hemagglutinin (Influenza A virus) (UniProt B4URE7); assay: Inhibition of influenza A virus A/WSN/33 (H1N1) Hemagglutinin transfected in Human HeLa cells assessed as polykaryon formation at 100 uM after 15 mins by microscopy; format: cell-based; details: Influenza A virus (A/WSN/1933(H1N1))
[19] = as §1; format: functional, cell-based, Influenza A virus (A/WSN/1933(H1N1)); details: 72 h

SMILES	CC50 at 40 h [1] [µM]	inhibition at 100 µM [2] [%]	also measured
C[C@@H]1NC(=O)[C@H](Cc2c[nH]c3ccccc23)NC1=O	> 200	2.31	–
C=CC(C)(C)c1[nH]c2ccc(C[C@H](O)C(C)(C)OC)cc2c1/C=C1\NC(=O)[C@H](C)NC1=O	> 200	15.2	–
C=CC(C)(C)c1[nH]c2ccc(C[C@H](OC(C)=O)C(C)(C)O)cc2c1/C=C1\NC(=O)[C@H](C)NC1=O	> 200	2.5	–
C=CC(C)(C)c1[nH]c2ccc(C[C@H](O)C(C)(C)OC)cc2c1/C=c1\[nH]c(=O)c(=C)[nH]c1=O	> 200	5	–
C=CC(C)(C)c1[nH]c2ccc(C[C@H](O)C(C)(C)OC)cc2c1C[C@@H]1NC(=O)[C@H](C)NC1=O	> 200	5.69	–
C=CC(C)(C)c1[nH]c2ccc(C[C@H](OC(C)=O)C(C)(C)O)cc2c1C[C@@H]1NC(=O)[C@H](C)NC1=O	> 200	3.48	–
C=CC(C)(C)c1[nH]c2c(C[C@H](O)C(C)(C)O)cccc2c1/C=C1\NC(=O)[C@H](C)NC1=O	> 200	15.1	–
C=CC(C)(C)c1[nH]c2c(C[C@H](O)C(C)(C)OC)cccc2c1/C=C1\NC(=O)[C@H](C)NC1=O	> 200	15.6	–
C=CC(C)(C)c1[nH]c2ccccc2c1C[C@@H]1NC(=O)[C@H](CO)NC1=O	> 200	13	–
C=CC(C)(C)c1[nH]c2ccccc2c1/C=C1\NC(=O)[C@@](CO)(OC)NC1=O	> 200	14.3	–
C=CC(C)(C)c1[nH]c2ccc(C[C@H](O)C(C)(C)O)cc2c1/C=C1\NC(=O)C(=O)NC1=O	> 200	6.45	–
C=CC(C)(C)c1[nH]c2ccccc2c1C(O)[C@@H]1NC(=O)[C@H](C)NC1=O (stereo not given in full)	> 200	3.38	–
C=CC(C)(C)c1[nH]c2ccccc2c1C(OC)[C@@H]1NC(=O)[C@H](C)NC1=O (stereo not given in full)	> 200	18.3	–
C=CC(C)(C)n1cc(C[C@@H]2NC(=O)[C@H](C)NC2=O)c2ccccc21	> 200	17.9	–
C=CC(C)(C)c1[nH]c2c(CC=C(C)C)cccc2c1/C=c1\[nH]c(=O)c(=C)[nH]c1=O	> 200	100	IC50 [3]: 51.4 µM
C=CC(C)(C)c1[nH]c2ccccc2c1/C=C1\NC(=O)[C@@](C)(OC)NC1=O	> 200	82.4	IC50 [3]: 68.8 µM
C=CC(C)(C)c1[nH]c2ccccc2c1/C=C1\NC(=O)C(=O)NC1=O	> 200	6.69	–
CC(C)=CCn1cc(C[C@@H]2NC(=O)[C@H](C)NC2=O)c2ccccc21	> 200	25.4	–
NC12CC3CC(CC(C3)C1)C2 [AMANTADINE]	> 200	–	–
C=CC(C)(C)c1[nH]c2ccccc2c1/C=C1\NC(=O)[C@H](CO)NC1=O [CRISTATUMIN A]	> 200	20.6	–
COc1cc(/C=C/C(=O)CC(=O)/C=C/c2ccc(O)c(OC)c2)ccc1O [CURCUMIN]	–	–	Activity [4]: 0.8; Activity [5]: 2.7; Activity [6]: 6.8; Activity [7]: 36.4; Kd [8]: 507 µM; Activity [9]: 78.8; Activity [10]: 16.1
C=CC(C)(C)c1[nH]c2c(CC=C(C)C)cc(CC=C(C)C)cc2c1C[C@@H]1NC(=O)[C@H](C)NC1=O [ECHINULIN]	> 200	13	–
C=CC(C)(C)c1[nH]c2ccc(CC=C(C)C)cc2c1/C=C1\NC(=O)[C@H](C)NC1=O [ISOECHINULIN A]	> 200	77.6	IC50 [3]: 42.7 µM
C=CC(C)(C)c1[nH]c2ccccc2c1/C=C1\NC(=O)[C@H](C)NC1=O [NEOECHINULIN A]	–	–	Activity [4]: 1; Activity [5]: 4.5; Activity [6]: 12.3; Kd (Hemagglutinin): 98 µM; Activity [10]: 26.5
C=CC(C)(C)c1[nH]c2ccccc2c1/C=c1\[nH]c(=O)c(=C)[nH]c1=O [NEOECHINULIN B]	> 200	70.5	inhibition [11]: Dose-dependent effect; Activity [12]: Active; Activity [4]: -3.9; inhibition (MDCK [13]): inactive; inhibition (MDCK [14]): Dose-dependent effect; inhibition (MDCK [15]): Dose-dependent effect; Activity [5]: -4; IC50 [3]: 27.4 µM; Activity [6]: 0.8; Activity [7]: 27.7; Kd [8]: 451 µM; Kd (Hemagglutinin): 32 µM; Activity [9]: 66.9; Activity (MDCK [16]): Active; inhibition (MDCK [17]): inactive; Activity [10]: 8.9; Activity [18]: inactive
CCOC(=O)C1=C[C@@H](OC(CC)CC)[C@H](NC(C)=O)[C@@H](N)C1 [OSELTAMIVIR]	> 200	–	IC50 [19]: 15 µM; IC50 [3]: 46.5 µM
C=CC(C)(C)c1[nH]c2ccccc2c1C[C@@H]1NC(=O)[C@H](C)NC1=O [PREECHINULIN]	> 200	14.9	–
NC(=O)c1ncn([C@@H]2O[C@H](CO)[C@@H](O)[C@H]2O)n1 [RIBAVIRIN]	> 200	–	–
CCOC(=O)c1c(CSc2ccccc2)n(C)c2cc(Br)c(O)c(CN(C)C)c12 [UMIFENOVIR]	–	–	Activity [4]: -1.8; Activity [5]: 1.2; Activity [6]: 7.5; Activity [7]: 48.7; Kd [8]: 0.081 µM; Activity [9]: 102; Activity [10]: 20.7
